Each structure is given as a SMILES string. Where a name gives a salt, the structure may show the parent alone.

In patent publication US6093732A, “4-hydroxyquinoline-3-carboxamides and hydrazides as antiviral agents” (Pharmacia & Upjohn Company, priority 1998, dated 2000) one finds IC50 data, which are given here for 31 compounds.

The target in the assay is T1, HCMV polymerase (Human cytomegalovirus, UniProt P08546).
T1 construct: made in house; host or cells: recombinant baculovirus-infected SF-9 cells
T1 sequence (P08546 whole entry): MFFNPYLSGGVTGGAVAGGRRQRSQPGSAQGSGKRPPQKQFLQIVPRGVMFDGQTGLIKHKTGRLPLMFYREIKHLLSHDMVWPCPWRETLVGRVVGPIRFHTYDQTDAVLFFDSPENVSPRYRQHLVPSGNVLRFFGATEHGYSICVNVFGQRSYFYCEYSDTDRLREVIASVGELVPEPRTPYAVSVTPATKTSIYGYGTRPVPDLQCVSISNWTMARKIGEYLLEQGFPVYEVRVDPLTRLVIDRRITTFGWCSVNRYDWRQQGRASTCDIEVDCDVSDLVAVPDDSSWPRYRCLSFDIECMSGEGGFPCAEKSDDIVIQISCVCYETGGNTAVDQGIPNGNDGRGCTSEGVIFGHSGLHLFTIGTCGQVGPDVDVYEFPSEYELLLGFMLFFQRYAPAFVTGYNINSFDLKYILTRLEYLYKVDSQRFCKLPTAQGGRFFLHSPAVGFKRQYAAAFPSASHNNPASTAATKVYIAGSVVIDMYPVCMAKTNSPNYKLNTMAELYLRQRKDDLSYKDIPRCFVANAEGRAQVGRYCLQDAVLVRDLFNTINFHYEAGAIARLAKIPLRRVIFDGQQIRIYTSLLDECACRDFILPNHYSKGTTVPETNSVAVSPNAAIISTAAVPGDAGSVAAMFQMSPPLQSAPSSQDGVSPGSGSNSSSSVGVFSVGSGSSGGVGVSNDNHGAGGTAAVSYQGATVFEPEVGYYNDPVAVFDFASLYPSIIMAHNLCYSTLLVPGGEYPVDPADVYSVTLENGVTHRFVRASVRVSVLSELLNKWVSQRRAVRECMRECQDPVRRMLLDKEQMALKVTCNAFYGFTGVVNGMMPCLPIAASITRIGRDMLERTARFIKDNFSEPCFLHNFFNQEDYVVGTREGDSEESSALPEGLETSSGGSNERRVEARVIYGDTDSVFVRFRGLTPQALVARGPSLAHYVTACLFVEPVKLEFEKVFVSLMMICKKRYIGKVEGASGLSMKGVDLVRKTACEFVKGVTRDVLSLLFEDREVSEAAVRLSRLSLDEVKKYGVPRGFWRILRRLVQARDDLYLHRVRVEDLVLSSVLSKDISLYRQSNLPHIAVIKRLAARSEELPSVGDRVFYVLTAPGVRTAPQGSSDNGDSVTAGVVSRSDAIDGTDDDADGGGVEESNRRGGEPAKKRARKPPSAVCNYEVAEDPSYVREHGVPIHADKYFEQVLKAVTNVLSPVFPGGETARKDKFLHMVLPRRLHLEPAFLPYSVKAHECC
Description: HCMV polymerase scintillation proximity assay (SPA), modified version. It counts as biochemical. The conditions noted are these: CMV polymerase; Table 1; modified assay with 4.5 mM DTT, compounds in 100% DMSO; read-out: Antiviral Selective Polymerase IC50 Values, CMV. The protocol:
The HCMV polymerase assay is performed using a scintillation proximity assay (SPA) as described in several references, such as N. D. Cook, et al., Pharmaceutical Manufacturing International, pages 49-53 (1992); K. Takeuchi, Laboratory Practice, September issue (1992); U.S. Pat. No. 4,568,649 (1986); which are incorporated by reference herein. Reactions are performed in 96-well plates. The assay is conducted in 100 μl volume with 5.4 mM HEPES (pH 7.5), 11.7 mM KCl, 4.5 mM MgCl2, 0.36 mg/ml BSA, and 90 nM ^3 H-dTTP. Assays are run with and without CHAPS, (3-[(3-Cholamidopropyl)-dimethylammonio]-1-propane-sulfonate) at a final concentration of 2 mM. HCMV polymerase is diluted in enzyme dilution buffer containing 50% glycerol, 250 mM NaCl, 10 mM HEPES (pH 7.5), 100 μg/ml BSA, and 0.01% sodium azide. The HCMV polymerase, which is expressed in recombinant baculovirus-infected SF-9 cells and purified according to literature procedures, is added at 10% (or 10 μl) of the final reaction volume, i.e., 100 μl. Compounds are diluted in 50% DMSO and 10 μl are added to each well. Control wells contain an equivalent concentration of DMSO. Unless noted otherwise, reactions are initiated via the addition of 6 nM biotinylated poly(dA)-oligo(dT) template/primer to reaction mixtures containing the enzyme, substrate, and compounds of interest. Plates are incubated in a 25° C. or 37° C. H2 O bath and terminated via the addition of 40 μl/reaction of 0.5 M EDTA (pH 8) per well. Reactions are terminated within the time-frame during which substrate incorporation is linear and varied depending upon the enzyme and conditions used, i.e., 30 min. for HCMV polymerase. Ten μl of streptavidin-SPA beads (20 mg/ml in PBS/10% glycerol) are added following termination of the reaction. Plates are incubated 10 min. at 37° C., then equilibrated to room temperature, and counted on a Packard Topcount. Linear regressions are performed and IC50 's are calculated using computer software.
A modified version of the above HCMV polymerase assay is performed as described above, but with the following changes: Compounds are diluted in 100% DMSO until final dilution into assay buffer. In the previous assay, compounds are diluted in 50% DMSO. 4.5 mM dithiotherotol (DTT) is added to the polymerase buffer. […] Other viral polymerase assays are performed using procedures similar to those described above.
Consider `CC(C)(C)OC(=O)CNS(=O)(=O)c1cc(F)c2ncc(C(=O)NCc3ccc(Cl)cc3)c(O)c2c1` [Example 257, tert-butyl 2-{[(3-{[(4-chlorobenzyl)amino]carbonyl}-8-fluoro-4-hydroxy-6-quinolinyl)sulfonyl]amino}acetate], for which the IC50 is 16.3 µM.

As to `O=C(NCc1ccc(Cl)cc1)c1cnc2ccc(N3CCOC3=O)cc2c1O` [Example 190, N-(4-Chlorobenzyl)-4-hydroxy-6-(2-oxo-1,3-oxazolidin-3-yl)-3-quinolinecarboxamide], the IC50 came out at 2.7 µM.

`O=C(NCc1ccc(Cl)cc1)c1cnc2ccc(-c3ccccc3)cc2c1O` [Example 58, N-((4-Chlorophenyl)methyl)-4-hydroxy-6-phenyl-3-quinoline-carboxamide]: the IC50 was determined as 1 µM.

For `CC(C)(C)c1ccc2ncc(C(=O)NCc3ccc(Cl)cc3)c(O)c2c1` [Example 63, N-[(4-Chlorophenyl)methyl]-6-(1,1-dimethylethyl)-4-hydroxy-3-quinolinecarboxamide], the IC50 amounted to 7 µM.

In the case of `O=C(NCc1ccc(Cl)cc1)c1cnc2c(F)cc(S(=O)(=O)NCc3ccco3)cc2c1O` [Example 194, N-(4-Chlorobenzyl)-8-fluoro-6-{[(2-furylmethyl)amino]sulfonyl}-4-hydroxy-3-quinolinecarboxamide], the IC50 is 15.3 µM.

As for `CCOC(=O)/C=C/c1cc(F)c2ncc(C(=O)NCc3ccc(Cl)cc3)c(O)c2c1` [Example 112, Ethyl (E)-3-(3-{[(4-chlorobenzyl)amino]carbonyl}-8-fluoro-4-hydroxy-6-quinolinyl)-2-propenoate], the 50% inhibitory concentration (IC50) was determined as 14 µM.

For the compound `O=C(NCc1ccc(Cl)cc1)c1cnc2c(F)cc([S+]([O-])CCO)cc2c1O` (stereo not shown) [Example 177, N-(4-Chlorobenzyl)-8-fluoro-4-hydroxy-6-[(2-hydroxyethyl)sulfinyl]-3-quinolinecarboxamide], the IC50 came out at 7.2 µM.

With `O=C(NCc1ccc(Cl)cc1)c1cnc2c(F)cc(S(=O)(=O)NCc3cccc4ccccc34)cc2c1O` [Example 206, N-(4-chlorobenzyl)-8-fluoro-4-hydroxy-6-{[(1-naphthylmethyl)amino]sulfonyl}-3-quinolinecarboxamide], the IC50 turned out to be 2.4 µM.

Regarding `COc1c(F)c(F)cc2c(O)c(C(=O)NCc3ccc(Cl)cc3)cnc12` [Example 79, N-((4-Chlorophenyl)methyl)-6,7-difluoro-4-hydroxy-8-methoxy-3-quinolinecarboxamide], the IC50 was determined as 0.96 µM.

As to `O=C(NCc1ccc(Cl)cc1)c1cnc2c(F)cc(S(=O)(=O)NCCCN3CCOCC3)cc2c1O` [Example 214, N-(4-chlorobenzyl)-8-fluoro-4-hydroxy-6-{[(3-morpholinopropyl)amino]sulfonyl}-3-quinolinecarboxamide], the IC50 came out at 29.7 µM.

With `O=C(NCc1ccc(Cl)cc1)c1cnc2c(F)cc(-c3nccs3)cc2c1O` [Example 87, N-(4-Chlorobenzyl)-8-fluoro-4-hydroxy-6-(1,3-thiazol-2-yl)-3-quinolinecarboxamide], the concentration for half-maximal inhibition (IC50) stood at 7.9 µM.

For `O=C(NNc1ccc(Cl)cc1)c1cnc2c(F)cccc2c1O` [Example 36, 8-Fluoro-4-hydroxy-3-quinolinecarboxylic acid 2-(4-chlorophenyl) hydrazide], the IC50 amounted to 7.8 µM.

Consider `N#CCCCCCc1cc(F)c2ncc(C(=O)NCc3ccc(Cl)cc3)c(O)c2c1` [Example 105, N-(4-Chlorobenzyl)-6-(5-cyanopentyl)-8-fluoro-4-hydroxy-3-quinolinecarboxamide], for which the IC50 was 10.4 µM.

Consider `O=C(NCc1ccc(Cl)cc1)c1cnc2c(F)cc(S(=O)(=O)NCc3ccc(Cl)cc3F)cc2c1O` [Example 262, N-(4-chlorobenzyl)-6-{[(4-chloro-2-fluorobenzyl)amino]sulfonyl}-8-fluoro-4-hydroxy-3-quinolinecarboxamide], for which the IC50 was found to be 9.9 µM.

For the compound `O=C(NCc1ccc(Cl)cc1)c1cnc2c(F)cc(CCCO)cc2c1O` [Example 110, N-(4-Chlorobenzyl)-8-fluoro-4-hydroxy-6-(3-hydroxypropyl)-3-quinolinecarboxamide], the half-maximal inhibitory concentration (IC50) is 0.28 µM.

Regarding `O=C(NCc1ccc(Cl)cc1)c1cnc2c(F)cc(S(=O)(=O)NCCCBr)cc2c1O` [Example 248, 6-{[(3-bromopropyl)amino]sulfonyl}-N-(4-chlorobenzyl)-8-fluoro-4-hydroxy-3-quinolinecarboxamide], the half-inhibitory concentration (IC50) came out at 11.6 µM.

In the case of `O=C(NCc1ccc(Cl)cc1)c1cnc2c(F)cc(S(=O)(=O)NCC3CCCCC3)cc2c1O` [Example 201, N-(4-chlorobenzyl)-6-{[(cyclohexylmethyl)amino]sulfonyl}-8-fluoro-4-hydroxy-3-quinolinecarboxamide], the IC50 worked out at 6 µM.

For the compound `COc1cc2ncc(C(=O)NCc3ccc(Cl)cc3)c(O)c2cc1OC` [Example 61, N-((4-Chlorophenyl)methyl)-4-hydroxy-6,7-dimethoxy-3-quinolinecarboxamide], the IC50 was 3.1 µM.

On to `COc1ccc2ncc(C(=O)NCc3ccc(Cl)cc3)c(O)c2c1` [Example 23, N-[(4-Chlorophenyl)methyl]-4-hydroxy-6-methoxy-3-quinoline-carboxamide], for which the IC50 is 3.4 µM.

For the compound `O=C(NCc1ccc(Cl)cc1)c1c[nH]c2ccc(/C=C\CO)cc2c1=O` [Example 135, N-[(4-Chlorophenyl)methyl]-1,4-dihydro-6-[(1Z)-3-hydroxy-1-propenyl]-4-oxo-3-quinolinecarboxamide], the IC50 amounted to 0.78 µM.

Regarding `CCSC/C=C\c1cc(F)c2ncc(C(=O)NCc3ccc(Cl)cc3)c(O)c2c1` [Example 129, N-[(4-Chlorophenyl)methyl]-6-[(1Z)-3-(ethylthio)-1-propenyl]-8-fluoro-4-hydroxy-3-quinolinecarboxamide], the IC50 came to 1 µM.

With `O=C(NCc1ccc(Cl)cc1)c1cnc2c(F)cc(S(=O)(=O)NCc3cccnc3)cc2c1O` [Example 218, N-(4-chlorobenzyl)-8-fluoro-4-hydroxy-6-{[(3-pyridinylmethyl)amino]sulfonyl}-3-quinolinecarboxamide], the IC50 was found to be 17.6 µM.

With `N#CCNS(=O)(=O)c1cc(F)c2ncc(C(=O)NCc3ccc(Cl)cc3)c(O)c2c1` [Example 240, N-(4-chlorobenzyl)-6-{[(cyanomethyl)amino]sulfonyl}-8-fluoro-4-hydroxy-3-quinolinecarboxamide], the concentration for half-maximal inhibition (IC50) was 11.4 µM.

In the case of `NCCSc1cc(F)c2ncc(C(=O)NCc3ccc(Cl)cc3)c(O)c2c1` [Example 172, 6-[(2-Aminoethyl)sulfanyl]-N-(4-chlorobenzyl)-8-fluoro-4-hydroxy-3-quinolinecarboxamide, hydrobromide], the IC50 came out at 35.1 µM.

As for `O=C(NCc1ccc(Cl)cc1)c1cnc2c(F)cc(S(=O)(=O)NCCOCCO)cc2c1O` [Example 228, N-(4-chlorobenzyl)-8-fluoro-4-hydroxy-6-({[2-(2-hydroxyethoxy)ethyl]amino}sulfonyl)-3-quinolinecarboxamide], the IC50 was 44.3 µM.

For `O=C(NCc1ccc(Cl)cc1)c1cnc2c(F)cc(S(=O)(=O)NCc3ccc(Br)cc3)cc2c1O` [Example 254, 6-{[(4-bromobenzyl)amino]sulfonyl}-N-(4-chlorobenzyl)-8-fluoro-4-hydroxy-3-quinolinecarboxamide], the IC50 was found to be 14.7 µM.

Take `N#CCc1ccc2ncc(C(=O)NCc3ccc(Cl)cc3)c(O)c2c1` [Example 41, N-[(4-Chlorophenyl)methyl]-6-(cyanomethyl)-4-hydroxy-3-quinolinecarboxamide]: the IC50 was 12.1 µM.

For `O=C(O)/C=C/c1cc(F)c2ncc(C(=O)NCc3ccc(Cl)cc3)c(O)c2c1` [Example 113, (E)-3-(3-{[(4-Chlorobenzyl)amino]carbonyl}-8-fluoro-4-hydroxy-6-quinolinyl)-2-propenoic acid], the IC50 was determined as 10.4 µM.

Regarding `CC(O)CCc1cc(F)c2ncc(C(=O)NCc3ccc(Cl)cc3)c(O)c2c1` (stereo not shown) [Example 132, N-(4-Chlorobenzyl)-8-fluoro-4-hydroxy-6-(3-hydroxybutyl)-3-quinolinecarboxamide], the IC50 came to 0.64 µM.

Regarding `CCSCC#Cc1cc(F)c2ncc(C(=O)NCc3ccc(Cl)cc3)c(O)c2c1` [Example 127, N-[(4-Chlorophenyl)methyl]-6-[3-(ethylthio)-1-propynyl]-8-fluoro-4-hydroxy-3-quinolinecarboxamide], the IC50 amounted to 23.5 µM.

`O=C(O)CCC#Cc1cc(F)c2ncc(C(=O)NCc3ccc(Cl)cc3)c(O)c2c1` [Example 115, 5-(3-{[(4-Chlorobenzyl)amino]carbonyl}-8-fluoro-4-hydroxy-6-quinolinyl)-4-pentynoic acid]: the IC50 was 6.1 µM.
